Entries after “also recorded” stand apart in the source; their conditions may differ. Where no end group is shown, it is not given here. [ ]: non-standard residue; d: D form. Ahx = NCCCCCC(=O)O
How the values were obtained:
[1] = Dynamic light scattering and zeta potential of nanoparticles; type: physicochemical; conditions: for Mean size (nm) I (%): intensity; for Mean size (nm) Nb (%): number
Protocol: Dynamic light scattering (DLS) and Zeta potential (ZP). CPPs:siRNA nanoparticles were evaluated with a Zetasizer NanoZS (Malvern) in terms of mean size (Z-average) of the particle distribution and of homogeneity (PdI). Zeta potential was determined in 5% glucose+5 mM of NaCl. All results were obtained from three independent measurements (three runs for each measurement at 25° C.).

[2] = as above; type: physicochemical
[3] = system: firefly luciferase (FLuc) in U87 cells; assay: Luciferase reporter gene silencing assay; type: cell-based, human; conditions: for Incubation time for maximum and saturating FLuc silencing / Reduction of FLuc activity: 20 nM siFLuc; for Reduction in the luciferase activity in presence of serum: 10% serum, 15-20 nM siRNA (CPP1), 10-20 nM (CPP2); for Reduction of FLuc activity: 5 min incubation, then 36 h in medium; for Fold more active than C6M1-L in reduced luciferase expression / Fold more active than C6M1 in reduced luciferase expression: CPP=200 nM, siRNA=10 nM; for Luciferase knock-down at R=40 relative to R=20: R=40, siFLuc 20 nM
Protocol: Transfection experiments. For Luciferase assay, the different cells (5,000 cells per well) were seeded 24 h before experiment into 96-well plates using the corresponding medium as described above. […] In the meantime, the growth medium covering the cells was replaced by 70 μL of fresh pre-warmed serum-free DMEM. […] After the addition of DMEM supplemented with 20% FBS (final FBS concentration=10%), cells were further incubated for 36 h and finally lysed for the luciferase detection. For transfection in the presence of serum, cells were incubated with nanoparticles in DMEM+10% FBS for 1.5 h at 37° C., and then DMEM supplemented with 10% FBS were added to the cells which were further incubated for 36 h before the final cell lyses for the luciferase detection.
Luciferase reporter gene silencing assay. The evaluation of siRNA delivery using the different vectors was carried out by measuring the remaining luciferase firefly (FLuc) activity in cell lysates. Briefly, after 36 h, the medium covering the cells was carefully removed and replaced by 50 μL of 0.5× Passive Lysis Buffer (PLB; Promega). After 30 min of shaking at 4° C., plates containing the cells were centrifuged (10 min, 1,800 rpm, 4° C.) and 5 μL of each cell lysate supernatant were finally transferred into a white 96-well plate. For the U87-FLuc-NLuc cells, both luciferase activities were quantified using a plate-reading luminometer (POLARstar Omega, BMG Labtech) using half-diluted Dual Luciferase Assay Reagents (Promega) as reported elsewhere (G. Aldrian, et al., (2017) J. Control. Release Off. J. Control. Release Soc. 256, 79-91). The results were expressed as percentage of relative light units (RLU) for each luciferase normalized first to non-treated cells (% FLuc and % NLuc) and then normalized to the value of % NLuc to obtain the Relative Luc Activity (% FLuc/% NLuc).
Cellular activity of CPP-based nanoparticles was evaluated in a luciferase screening assay, as previously described (L. N. Patel, et al., (2007) Pharm. Res. 24, 1977-1992; A. Elmquist, et al., (2001) Exp. Cell Res. 269, 237-244)). The knock-down efficiency of the different CPP:siRNA nanoparticles was performed on U87 cell line stably transfected for constitutive expression of FLuc/NLuc reporter genes (U87-FRT-CMV/Fluc-CMV/iRFP-IRES-NLuc).

living U87 cells = assay: Spinning disk internalization kinetics of Cy3b-labelled siRNA; type: cell-based, human; conditions: siRNA-Cy3b 20 nM, R=20; for Incubation time to maximal fluorescence of delivered siRNA: maximal fluorescence 90%±5%, 900 s to 945 s
Protocol: For microscopy experiments, 300,000 U87 cells were seeded 24 h before imaging into glass bottom dishes (FluoroDish, World Precision Instruments). Before experiments, cells were washed twice with D-PBS and covered with 1,600 μL of complete medium. Afterwards, 400 μL of NPs (peptide:siRNA; R=20, siRNA=20 nM), formulated in an aqueous solution of 5% glucose were directly added on the cells as previously described.
For Spinning disk experiment, an inverted microscope (Nikon Ti Eclipse) coupled to a spinning disk (ANDOR) system was used to study the internalization kinetics of the NPs inside living cells. After the addition of the NPs, cells were maintained at 37° C. by a cage incubator (Okolab) and images were directly recorded every 5 s for 1,200 s with an EM-CCD camera (iXon Ultra) and projected with the Andor IQ3 software. Control experiments were performed to ensure that no emission bleed through was observed between the different channels. All images were treated with the ImageJ software.

[4] = Circular dichroism conformational analysis; type: physicochemical; conditions: for Conformation by circular dichroism, PEPTIDE +siRNA: CPP:siRNA molar ratio R 20, CPP 40 μM; for Conformation by circular dichroism, PEPTIDE +siRNA +charged LUVs / Conformation by circular dichroism, PEPTIDE +siRNA +neutral LUVs: R 20, CPP:lipid r 10, CPP 40 μM; for Conformation by circular dichroism, PEPTIDE: peptide free in solution, CPP 40 μM, rc = random coiled
Protocol: Circular dichroism (CD) measurements. CD spectra were recorded on a Jasco 810 (Japan) dichrograph in quartz suprasil cells (Hellma) with an optical path of 1 mm for peptide in solution or in the presence of liposomes vesicles. The same concentrations of peptide (40 μM) was used for each condition. Spectra were obtained from 3 accumulations between 190 nm and 260 nm with a data pitch of 0.5 nm, a bandwidth of 1 nm and a standard sensitivity.
The predicted structures were then compared to experimental investigations. Circular dichroism spectra were recorded for the peptides free in solution, afterwards for the peptides in the presence of siRNA and then after the addition of liposomes.

U87 cells [5] = assay: Cytotoxicity from Western blot internal control (vinculin) and total protein (BCA); type: cell-based, human; conditions: siCDK4 50 nM
Protocol: Western blotting. Transfected cells washed in PBS, and lysed in RIPA buffer [50 mM Tris pH 8.0, 150 mM sodium chloride, 1% Triton X-100, 0.1% SDS (sodium dodecyl sulfate, Sigma-Aldrich), including protease inhibitors (SigmaFAST, Sigma-Aldrich)]. Cells were incubated for 5 min on ice with 130 μL/24-well lysis buffer. Thereafter, cells were scrapped and transferred in a 1.5 ml tube. After 5 min on ice, the cell lysates were centrifuged (10 min, 13,400 rpm, 4° C.), supernatants were collected and protein concentrations were determined using the Pierce BCA Protein Assay (ThermoFisher). Cell extracts (0.25-0.38 μg/μL) were separated by 4-20% Mini-PROTEAN® TGX™ Precast Gel (Bio-Rad). After electrophoresis, samples were transferred onto Trans-Blot® Turbo™ Mini PVDF Transfer membrane (Bio-Rad). As antibodies (all from Cell Signaling), we used anti-cyclin B1 mouse mAb V152, anti-CDK4 rabbit mAb D9G3E, anti-Vinculin rabbit mAb E1E9V, anti-mouse IgG HRP and anti-rabbit IgG HRP. […] The signal intensities of the blots were quantified by Image J.
The cytotoxicity could be observed in Western blot using the internal control (Vinculin expression: bars in dark gray) or the total protein concentrations (measured by the BCA kit, value in red).

U87 cells [6] = assay: LDH cytotoxicity measurement; type: cell-based, human; conditions: incubation times 5 min to 90 min, 20 nM siFLuc
Protocol: Measurement of cell cytotoxicity. Evaluation of cytotoxicity induced by the nanoparticles was performed using Cytotoxicity Detection Kit^Plus (LDH, Roche Diagnostics) on 50 μL of supernatant, by following the manufacturer instructions.

[7] = system: FLuc in U937 human macrophage; assay: Luciferase silencing on non-adherent macrophage suspension; type: cell-based; conditions: 10-50 nM siRNA without CPP
Protocol: FIG. 15: Evaluation of CPP1:siRNA and CPP2:siRNA PBNs activity on cell suspensions. […] Incubation conditions: 10,000 cells/well, CPP:siRNA ratio=20:1 at the indicated siRNA concentration, incubation time 1.5 h in serum-free medium. Normalization of FLuc/NLuc values to the condition of untreated cells (N.T.). Abbreviations: siSCR=scrambled siRNA, siFLuc=firefly luciferase specific siRNA. n=2 independent experiments in triplicates. […] Incubation conditions: 10,000 cells/well, CPP:siRNA ratio=20:1 at the indicated siRNA concentration, incubation time 1.5 h in medium containing 10% serum. Normalization of FLuc/NLuc values to the condition of untreated cells (N.T.). Abbreviations: siSCR=scrambled siRNA, siFLuc=firefly luciferase specific siRNA. n=2 independent experiments in triplicates. […] Incubation conditions: 10,000 cells/well, CPP:siRNA ratio=20:1 at the indicated siRNA concentration (or the siRNA alone), incubation time 1.5 h in serum-free medium. Normalization of FLuc values to the condition of untreated cells (N.T.). n=2 independent experiments in triplicates. Next, the transfection potential of the CPP2:siFLuc on non-adherent cells such as the firefly luciferase stably transfected U937 human macrophage was evaluated (FIG. 15C). […] The silencing efficiency was determined with 40%, 80% and 100% for the siRNA concentrations of 10 nM, 20 nM and 50 nM, respectively.

Substance | Mean size (nm) I (%) ([1]; CPP:siRNA R = 20, 5% glucose) [nm] | Mean size (nm) Nb (%) ([1]; CPP:siRNA R = 20, 5% glucose) [nm] | Incubation time for maximum and saturating FLuc silencing [3] [min] | Reduction in the luciferase activity in presence of serum [3] | Reduction of FLuc activity [3] [%] | Fold more active than C6M1-L in reduced luciferase expression [3] [fold] | Fold more active than C6M1 in reduced luciferase expression [3] [fold] | Luciferase knock-down at R=40 relative to R=20 [3] | IC50 values of internalization (50%), incubation time (living U87 cells) [s] | Incubation time to maximal fluorescence of delivered siRNA (living U87 cells) [min] | Conformation by circular dichroism, PEPTIDE +siRNA [4] | Conformation by circular dichroism, PEPTIDE +siRNA +charged LUVs [4] | Conformation by circular dichroism, PEPTIDE +siRNA +neutral LUVs [4] | Conformation by circular dichroism, PEPTIDE [4] | Cytotoxicity (U87 cells [6]) | other results
LLWRLWRLLWRLWRLL-NH2 [CPP1, LLWRLWRLLWRLWRLL] | 73.3 ± 7.4 | 26.5 ± 4.1 | 60 | around 70% | 40 | 6 | 3 | slightly increased | 240 | ~15 | alpha helical structure; also recorded: helix | helix | helix | rc/helix | without any cytotoxicity | ZP (mV) ([1]; CPP:siRNA R = 20, 5% glucose with 5 mM NaCl): 42.2 ± 4.5 mV; Mean size of CPP1:MBBO nanoparticles (DLS) ([2]; R=5, 10 μM CPP1): 180 nm; Cytotoxicity (vinculin, total cellular proteins) (U87 cells [5]): without any cytotoxicity
RGD-Ahx-LLRLLRWWWRLLRLL (RGD[Ahx]LLRLLRWWWRLLRLL) [R-CPP2] |  |  |  |  |  |  |  |  |  |  |  |  |  |  |  | Reduction in the expression of luciferase ([3]; RGD-grafted peptide, R=20): ~70%
5′-CUU-ACG-CUG-AGU-ACU-UCG-AdTdT-3′ [siFLuc] |  |  |  |  |  |  |  |  |  |  |  |  |  |  |  | Knock-down efficiency of siRNA alone [7]: did not shown any knock-down efficiency
LLRLLRWWRLLRLL (CPP3) |  |  |  |  |  |  |  | slightly increased |  |  | alpha helical structure; also recorded: helix | helix | helix | turn |  | PdI ([1]; CPP:siRNA R = 20, 5% glucose): around 0.3
LLRLLRWWWRLLRLL-NH2 [CPP2, LLRLLRWWWRLLRLL] | 80.0 ± 4.9 | 35.7 ± 7.3 | 60 | around 70% | 40 | 3.5 | 2 | slightly increased | 185 | ~15 | alpha helical structure; also recorded: helix | helix | helix | turn/rc | without any cytotoxicity | ZP (mV) ([2]; CPP:siRNA R = 20, 5% glucose with 1 mM NaCl): 28.8 ± 0.9 mV; Reduction of firefly luciferase expression ([3]; 1 nM to 20 nM siRNA, R 20, L or D isoform): dose-dependent manner; Increase of knock-down efficiency, dilution condition versus vol:vol condition ([3]; U87 cells, siFLuc 5-20 nM): 2 fold
LRLRWWWRLRL (CPP2-1) |  |  |  |  |  |  |  |  |  |  |  |  |  |  |  | Activity of nanoparticles in luciferase silencing ([3]; R=20, siFLuc, compared with parent CPP): total inactivity
